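96-well plates; 48 h exposure; 5 concentrations. Endpoints by linear interpolation between flanking doses. Not reached: highest tested concentration assigned. Abbreviation: GI50, concentration required for 50% inhibition of growth. TGI denotes the concentration required for complete inhibition of growth.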
Legend:
Experiment in all cases: inhibition of tumour cell growth, NCI panel, 48 h
M14 melanoma = test system: M14 melanoma
TK-10 renal = test system: TK-10 renal
A498 renal = test system: A498 renal
SF-268 CNS = test system: SF-268 CNS
XF 498 CNS = test system: XF 498 CNS
EKVX NSCLC = test system: EKVX NSCLC
SN12C renal = test system: SN12C renal
OVCAR-5 ovarian = test system: OVCAR-5 ovarian
SW-620 colon = test system: SW-620 colon
RPMI-8226 leukemia = test system: RPMI-8226 leukemia
SK-MEL-2 melanoma = test system: SK-MEL-2 melanoma
DMS 114 small cell lung = test system: DMS 114 small cell lung
HOP-62 NSCLC = test system: HOP-62 NSCLC
HCC-2998 colon = test system: HCC-2998 colon
MALME-3M melanoma = test system: MALME-3M melanoma
DMS 273 small cell lung = test system: DMS 273 small cell lung
HL-60(TB) leukemia = test system: HL-60(TB) leukemia
MOLT-4 leukemia = test system: MOLT-4 leukemia
KM20L2 colon = test system: KM20L2 colon
NCI-H522 lung = test system: NCI-H522 lung
OVCAR-4 ovarian = test system: OVCAR-4 ovarian
KM12 colon = test system: KM12 colon
HT29 colon = test system: HT29 colon
SK-MEL-5 melanoma = test system: SK-MEL-5 melanoma
SK-MEL-28 melanoma = test system: SK-MEL-28 melanoma
HCT-116 colon = test system: HCT-116 colon
CAKI-1 renal = test system: CAKI-1 renal
SF-295 CNS = test system: SF-295 CNS
M19-MEL melanoma = test system: M19-MEL melanoma
SNB-19 CNS = test system: SNB-19 CNS
A549 NSCLC = test system: A549 NSCLC
OVCAR-8 ovarian = test system: OVCAR-8 ovarian
786-0 renal = test system: 786-0 renal
SK-OV-3 ovarian = test system: SK-OV-3 ovarian
NCI-H23 lung = test system: NCI-H23 lung
HCT-15 colon = test system: HCT-15 colon
RXF-631 renal = test system: RXF-631 renal
IGROV1 ovarian = test system: IGROV1 ovarian
LXFL 529 NSCLC = test system: LXFL 529 NSCLC
NCI-H460 lung = test system: NCI-H460 lung
DLD-1 colon = test system: DLD-1 colon
SNB-78 CNS = test system: SNB-78 CNS
COLO 205 colon = test system: COLO 205 colon
U251 CNS = test system: U251 CNS
K-562 leukemia = test system: K-562 leukemia
LOX IMVI melanoma = test system: LOX IMVI melanoma
UACC-257 melanoma = test system: UACC-257 melanoma
OVCAR-3 ovarian = test system: OVCAR-3 ovarian
CCRF-CEM leukemia = test system: CCRF-CEM leukemia
UACC-62 melanoma = test system: UACC-62 melanoma
ACHN renal = test system: ACHN renal
HOP-18 NSCLC = test system: HOP-18 NSCLC
UO-31 renal = test system: UO-31 renal
SF-539 CNS = test system: SF-539 CNS
SNB-75 CNS = test system: SNB-75 CNS
HOP-92 NSCLC = test system: HOP-92 NSCLC
RXF 393 renal = test system: RXF 393 renal
NCI-H226 lung = test system: NCI-H226 lung

CCC1(C(=O)OC)CCc2c(OC)ccc(OC)c2C1=O (stereo not given)
TGI (M14 melanoma): > 100 µM | TGI (TK-10 renal): > 100 µM | TGI (A498 renal): > 100 µM | TGI (SF-268 CNS): > 100 µM | TGI (XF 498 CNS): > 100 µM | TGI (EKVX NSCLC): > 100 µM | TGI (SN12C renal): > 100 µM | TGI (OVCAR-5 ovarian): > 100 µM | TGI (SW-620 colon): > 100 µM | TGI (RPMI-8226 leukemia): > 100 µM | TGI (SK-MEL-2 melanoma): > 100 µM | TGI (DMS 114 small cell lung): > 100 µM | TGI (HOP-62 NSCLC): > 100 µM | TGI (HCC-2998 colon): > 100 µM | TGI (MALME-3M melanoma): > 100 µM | TGI (DMS 273 small cell lung): > 100 µM | TGI (HL-60(TB) leukemia): > 100 µM | TGI (MOLT-4 leukemia): > 100 µM | TGI (KM20L2 colon): > 100 µM | TGI (NCI-H522 lung): > 100 µM | TGI (OVCAR-4 ovarian): > 100 µM | TGI (KM12 colon): > 100 µM | TGI (HT29 colon): > 100 µM | TGI (SK-MEL-5 melanoma): > 100 µM | TGI (SK-MEL-28 melanoma): > 100 µM | TGI (HCT-116 colon): > 100 µM | TGI (CAKI-1 renal): > 100 µM | TGI (SF-295 CNS): > 100 µM | TGI (M19-MEL melanoma): > 100 µM | TGI (SNB-19 CNS): > 100 µM | TGI (A549 NSCLC): > 100 µM | TGI (OVCAR-8 ovarian): > 100 µM | TGI (786-0 renal): > 100 µM | TGI (SK-OV-3 ovarian): > 100 µM | TGI (NCI-H23 lung): > 100 µM | TGI (HCT-15 colon): > 100 µM | TGI (RXF-631 renal): > 100 µM | TGI (IGROV1 ovarian): > 100 µM | TGI (LXFL 529 NSCLC): > 100 µM | TGI (NCI-H460 lung): > 100 µM | TGI (DLD-1 colon): > 100 µM | TGI (SNB-78 CNS): > 100 µM | TGI (COLO 205 colon): > 100 µM | TGI (U251 CNS): > 100 µM | TGI (K-562 leukemia): > 100 µM | TGI (LOX IMVI melanoma): > 100 µM | TGI (UACC-257 melanoma): > 100 µM | TGI (OVCAR-3 ovarian): > 100 µM | TGI (CCRF-CEM leukemia): > 100 µM | TGI (UACC-62 melanoma): > 100 µM | TGI (ACHN renal): > 100 µM | TGI (HOP-18 NSCLC): > 100 µM | TGI (UO-31 renal): > 100 µM | TGI (SF-539 CNS): > 100 µM

CCC[CH2][Ge]([CH2]CCC)([CH2]CCC)[O]C(=O)C(O)c1ccccc1 (stereo not given)
GI50 (M14 melanoma): 2.51 µM | TGI (M14 melanoma): 12 µM | GI50 (TK-10 renal): 18 µM | TGI (TK-10 renal): > 100 µM | GI50 (A498 renal): 11.7 µM | TGI (A498 renal): 26.8 µM | GI50 (SF-268 CNS): 6.74 µM | TGI (SF-268 CNS): > 65.1 µM | TGI (XF 498 CNS): 4.92 µM | GI50 (EKVX NSCLC): 0.309 µM | TGI (EKVX NSCLC): 15 µM | GI50 (SN12C renal): 4.58 µM | TGI (SN12C renal): 23.4 µM | GI50 (OVCAR-5 ovarian): 6.27 µM | TGI (OVCAR-5 ovarian): 21.7 µM | GI50 (SW-620 colon): 4.09 µM | TGI (SW-620 colon): 20.4 µM | GI50 (RPMI-8226 leukemia): 0.641 µM | TGI (RPMI-8226 leukemia): 42.2 µM | GI50 (DMS 114 small cell lung): 0.284 µM | TGI (DMS 114 small cell lung): 7.19 µM | GI50 (HOP-62 NSCLC): 9.67 µM | TGI (HOP-62 NSCLC): 23.4 µM | GI50 (HCC-2998 colon): 2.69 µM | TGI (HCC-2998 colon): 14.4 µM | GI50 (MALME-3M melanoma): 1.45 µM | TGI (MALME-3M melanoma): 18 µM | GI50 (DMS 273 small cell lung): 1.2 µM | TGI (DMS 273 small cell lung): 11.9 µM | TGI (HL-60(TB) leukemia): 4.3 µM | GI50 (SNB-75 CNS): 4.51 µM | TGI (SNB-75 CNS): > 100 µM | GI50 (HOP-92 NSCLC): 0.49 µM | TGI (HOP-92 NSCLC): 15.8 µM | GI50 (MOLT-4 leukemia): 0.602 µM | TGI (MOLT-4 leukemia): > 39.4 µM | GI50 (KM20L2 colon): 2.18 µM | TGI (KM20L2 colon): 22 µM | GI50 (NCI-H522 lung): 0.411 µM | TGI (NCI-H522 lung): 5.65 µM | GI50 (OVCAR-4 ovarian): 0.794 µM | TGI (OVCAR-4 ovarian): 29 µM | GI50 (KM12 colon): 2.96 µM | TGI (KM12 colon): 17.4 µM | GI50 (HT29 colon): 3.32 µM | TGI (HT29 colon): 20.8 µM | GI50 (SK-MEL-5 melanoma): 1.46 µM | TGI (SK-MEL-5 melanoma): 13.2 µM | GI50 (SK-MEL-28 melanoma): 12.7 µM | TGI (SK-MEL-28 melanoma): 29.8 µM | GI50 (HCT-116 colon): 0.571 µM | TGI (HCT-116 colon): 13.8 µM | GI50 (CAKI-1 renal): 5.9 µM | TGI (CAKI-1 renal): 24.1 µM | GI50 (SF-295 CNS): 1.01 µM | TGI (SF-295 CNS): 17.6 µM | GI50 (M19-MEL melanoma): 8.65 µM | TGI (M19-MEL melanoma): 22.3 µM | GI50 (SNB-19 CNS): 18.5 µM | TGI (SNB-19 CNS): > 63.7 µM | GI50 (A549 NSCLC): 2 µM | TGI (A549 NSCLC): 26 µM | GI50 (OVCAR-8 ovarian): 10.6 µM | TGI (OVCAR-8 ovarian): 22.4 µM | GI50 (786-0 renal): 7.41 µM | TGI (786-0 renal): 23.2 µM | GI50 (SK-OV-3 ovarian): 9.27 µM | TGI (SK-OV-3 ovarian): 35.6 µM | GI50 (NCI-H23 lung): 0.366 µM | TGI (NCI-H23 lung): 9.91 µM | GI50 (HCT-15 colon): 1.78 µM | TGI (HCT-15 colon): 14.2 µM | GI50 (RXF-631 renal): 5.7 µM | TGI (RXF-631 renal): 31.9 µM | GI50 (IGROV1 ovarian): 9.44 µM | TGI (IGROV1 ovarian): 30.6 µM | GI50 (LXFL 529 NSCLC): 1.29 µM | TGI (LXFL 529 NSCLC): 21.4 µM | GI50 (NCI-H460 lung): 3.03 µM | TGI (NCI-H460 lung): 34.9 µM | GI50 (DLD-1 colon): 1.99 µM | TGI (DLD-1 colon): 21.9 µM | GI50 (SNB-78 CNS): 3.04 µM | TGI (SNB-78 CNS): 38.8 µM | GI50 (COLO 205 colon): 2.33 µM | TGI (COLO 205 colon): 12 µM | TGI (RXF 393 renal): 1.06 µM | GI50 (U251 CNS): 2.32 µM | TGI (U251 CNS): 20.3 µM | GI50 (K-562 leukemia): 0.443 µM | TGI (K-562 leukemia): 19.9 µM | GI50 (LOX IMVI melanoma): 1.85 µM | TGI (LOX IMVI melanoma): 13.6 µM | GI50 (UACC-257 melanoma): 1.08 µM | TGI (UACC-257 melanoma): 15.5 µM | GI50 (OVCAR-3 ovarian): 1.35 µM | TGI (OVCAR-3 ovarian): 18.4 µM | GI50 (CCRF-CEM leukemia): 0.207 µM | TGI (CCRF-CEM leukemia): 25.7 µM | GI50 (UACC-62 melanoma): 4.03 µM | TGI (UACC-62 melanoma): 18.1 µM | GI50 (ACHN renal): 4.23 µM | TGI (ACHN renal): 19.8 µM | GI50 (HOP-18 NSCLC): 18.5 µM | TGI (HOP-18 NSCLC): 51 µM | GI50 (NCI-H226 lung): 1.2 µM | TGI (NCI-H226 lung): 27.9 µM | GI50 (UO-31 renal): 0.885 µM | TGI (UO-31 renal): 15.8 µM | GI50 (SF-539 CNS): 9.64 µM | TGI (SF-539 CNS): 22.1 µM

Source: PubChem BioAssay (NCI)
